Reference: patent EP0904269B1, “3,4-DIARYL-2-HYDROXY-2,5-DIHYDROFURANS AS PRODRUGS TO COX-2 INHIBITORS” (Merck Frosst Canada & Co., priority 1995, dated 1997)

test system: Rat Paw Edema; assay: Rat paw edema assay (carrageenan-induced); type: in vivo, Male Sprague-Dawley rats; settings: dose of prodrug, po, required to reduce edema formation by 50% as compared to the vehicle control
Description: Male Sprague-Dawley rats (150-200 g) are fasted overnight and are given, po, either vehicle (1% methocel or 5% Tween 80) or a test compound. One hr later, a line is drawn using a permanent marker at the level above the ankle in one hind paw to define the area of the paw to be monitored. The paw volume (V0) is measured using a plethysmometer (Ugo-Basile, Italy) based on the principle of water displacement. The animals are then injected subplantarly with 50 µl of 1% carrageenan solution in saline (FMC Corp, Maine) into the paw using an insulin syringe with a 25-gauge needle (i.e. 500 µg carrageenan per paw). Three hr later, the paw volume (V3) is measured and the increases in paw volume (V3 - VO) are calculated. The animals are sacrificed by CO2 asphyxiation and the absence or presence of stomach lesions scored. Data is compared with the vehicle-control values and percent inhibition calculated. All treatment groups are coded to eliminate observer bias.
Compounds of the present invention are prodrugs of inhibitors of COX-2 and are thereby useful in the treatment of COX-2 mediated diseases as enumerated above. The extent of conversion of these compounds to the active COX-2 inhibitors may be seen in the representative results shown below along with their antiinflammatory activity. The plasma levels indicated are the maximum rat plasma concentrations of the active COX-2 inhibitor observed when the rat was treated with a 20 mg/kg oral dose of the indicated prodrug. The ED50 values in the rat paw edema assay represent the dose of prodrug required to reduce edema formation by 50% as compared to the vehicle control.

Row | Compound | ED50 [mg/kg]
1 | CC1(C)OC(O)C(Oc2ccc(F)c(F)c2)=C1c1ccc(S(C)(=O)=O)cc1 (centres unmarked) [Example 10, 5.5-Dimethyl-3-(3,4-difluorophenoxy)-2-hydroxy-4-(4-(methylsulfonyl)phenyl)-2.5-dihydrofuran] | 0.09
2 | CS(=O)(=O)c1ccc(C2=C(c3cccnc3)C(O)CC2)cc1 (centres unmarked) [Example 40, 3-(4-Methylsulfonylphenyl)-2-(3-pyridinyl)-2-cyclopenten-1-ol] | 1.5
3 | CC(C)OC1=C(c2ccc(S(C)(=O)=O)cc2)C(C)(C)OC1O (centres unmarked) [Example 39, 3-Isopropoxy-5,5-dimethyl-4-(4-methylsulfonylphenyl)-2,5-dihydrofuran-2-ol] | 2.7
4 | CS(=O)(=O)c1ccc(C2=C(c3ccccc3)C(O)CC2)cc1 (centres unmarked) [Example 13, 3-(4-(Methylsulfonyl)phenyl)-2-phenyl-2-cyclopenten-1-ol] | 0.9
5 | CC(OC1=C(c2ccc(S(C)(=O)=O)cc2)C(C)(C)OC1O)C1CC1 (centres unmarked) [Example 44, 3-(1-Cyclopropylethoxy)-5,5-dimethyl-4-(4-methylsulfonylphenyl)-2,5-dihydrofuran-2-ol] | 1.6
6 | CC1(C)OC(O)C(c2cc(F)cc(F)c2)=C1c1ccc(S(C)(=O)=O)cc1 (centres unmarked) [Example 2, 3-(3,5-Difluorophenyl)-5,5-dimethyl-2-hydroxy-4-(4-(methylsulfonyl)phenyl)-2,5-dihydrofuran] | 0.7
7 | CC1(C)OC(O)C(c2cccc(F)c2)=C1c1ccc(S(C)(=O)=O)cc1 (centres unmarked) [Example 1, 5,5-Dimethyl-3-(3-fluorophenyl)-2-hydroxy-4-(4-methylsulfonylphenyl)-2.5-dihydrofuran] | 2.5
8 | CC1(C)OC(O)C(Oc2cccc(F)c2)=C1c1ccc(S(C)(=O)=O)cc1 (centres unmarked) [Example 9, 5.5-Dimethyl-3-(3-fluorophenoxy)-2-hydroxy-4-(4-(methylsulfonyl)phenyl)-2,5-dihydrofuran] | 1.7
